The test system of data set [1] is embryonic dorsal root ganglion (DRG) explants. Particulars: cited from earlier work.
For data set [2] the test system is unchanged. Nature of the data set: Nerve-On-A-Chip compound action potential (CAP) electrophysiology. It is filed as cell-based, rat. As to conditions: 40 μM, 48-hr application.
The test system is the same in data set [3]. Particulars: 40 μM, 48-hr application.
In data set [4] the test system is neuronal cell death in vitro. Particulars: cited from earlier work.

Read-outs that look alike come from different tables or passages of the source.

On to `NC1=N[C@H](O)[C@H]2[C@H]3O[C@]4(O)O[C@@H]([C@@H](O)[C@@]2(N1)[C@@H]4O)[C@]3(O)CO` [tetrodotoxin], for which, in data set [1], the “effect on CAP population responses” value is recorded as “reversibly abolished”.
With `C=C[C@@]1(C)CC(=O)[C@]2(O)[C@@]3(C)[C@@H](O)CCC(C)(C)[C@@H]3[C@H](O)[C@H](OC(C)=O)[C@@]2(C)O1` [forskolin], in data set [2], the “reduction in CAP amplitude” value is on record as roughly 50% and the “reduction in conduction velocity” value was roughly 50%. The dysmyelination by histology entry in data set [3] is “strong evidence of dysmyelination”. In data set [3] (histology, data not shown), the “increase in G-ratio (thinning of myelin sheath)” value is reported as 50% and the “reduction in % myelinated axons” value was found to be 70%.
On to `CCCCCC` [n-hexane], for which the “In Vitro Neurotoxic dose” value in data set [4] is listed as 765 mM.
In the case of `[CH3][Hg][Cl]` [Methylmercury], the “In Vitro Neurotoxic dose” value in data set [4] (literature value, used as acute 48-hr dose of the planned pilot study) was 10 mM.

The values above are taken from US20210198613A1, “MICROELECTRODE ARRAY AND USES THEREOF” (AXOSIM, INC., priority 2018, published 2021).
